# From ChEMBL document CHEMBL3244182, “Potential bis-alkylating agents for cancer chemotherapy. Approaches to the synthesis of 2-sulfonyl-1,4-bis(methanesulfonoxy)butanes” (1978)
# Calls of active or inactive are those of the source. The rule behind the calls is not given here.
# How the values were obtained:
# KB = test: In vitro antitumor activity against human KB cells treated as an alcoholic solution; format: functional; conditions: read-out: ED50 (the source's name)
# L1210 [1] = test: In vivo antitumor activity against mouse L1210 cells allografted in BDF1 mouse at 400 mg/kg, ip administered as three doses as suspension in klucel; format: functional, organism-based; parameters: dose 400 mg/kg
# P388 [2] = test: In vivo antitumor activity against mouse P388 cells allografted in BDF1 mouse at 400 mg/kg, ip administered as three doses as suspension in klucel; format: functional, organism-based; parameters: dose 400 mg/kg
# L1210 [3] = test: In vivo antitumor activity against mouse L1210 cells allografted in BDF1 mouse at 400 mg/kg, ip administered as single dose as suspension in saline; format: functional, organism-based; parameters: dose 400 mg/kg
# L1210 [4] = test: In vivo antitumor activity against mouse L1210 cells allografted in BDF1 mouse at 400 mg/kg, ip administered as nine doses as suspension in klucel; format: functional, organism-based; parameters: dose 400 mg/kg
# P388 [5] = test: In vivo antitumor activity against mouse P388 cells allografted in CDF1 mouse at 200 mg/kg, ip administered as nine doses as suspension in klucel; format: functional, organism-based; parameters: dose 200 mg/kg
# L1210 [6] = test: In vivo antitumor activity against mouse L1210 cells allografted in BDF1 mouse at 200 mg/kg, ip administered as nine doses as suspension in saline with Tween 80; format: functional, organism-based; parameters: dose 200 mg/kg
# L1210 [7] = test: In vivo antitumor activity against mouse L1210 cells allografted in BDF1 mouse at 400 mg/kg, ip administered as single dose as suspension in CMC; format: functional, organism-based; parameters: dose 400 mg/kg
smiles,measurement,setting,value
CCCCCCCCCCCS(=O)(=O)C(CCOS(C)(=O)=O)COS(C)(=O)=O (racemic),EC50,KB,31 µg/mL
same,Activity,L1210 [1],inactive
same,Activity,P388 [2],inactive
CCCCS(=O)(=O)C(CCOS(C)(=O)=O)COS(C)(=O)=O (racemic),Activity,L1210 [3],inactive
COc1ccc(OCCS(=O)(=O)C(CCOS(C)(=O)=O)COS(C)(=O)=O)cc1 (racemic),Activity,L1210 [4],inactive
COc1ccccc1C(=O)Nc1cc2c(cc1N1CCNCC1C)n(C)c(=O)n2C (racemic),Activity,P388 [5],inactive
CS(=O)(=O)OCCC(COS(C)(=O)=O)S(=O)(=O)CCCOc1ccccc1-c1ccccc1 (racemic),Activity,L1210 [6],inactive
CS(=O)(=O)OCCC(COS(C)(=O)=O)S(=O)(=O)Cc1ccccc1 (racemic),Activity,L1210 [3],inactive
CS(=O)(=O)OCCC(COS(C)(=O)=O)S(=O)(=O)c1ccccc1 (racemic),Activity,L1210 [7],inactive
